In patent US8987249B2, “Substituted 2-Aza-bicyclo[2.2.1]heptane-3-carboxylic acid (benzyl-cyano-methyl)-amides inhibitors of Cathepsin C” (Boehringer Ingelheim International GmbH, priority 2013, dated 2015):

Key:
in vitro = conditions: human, microsomes, pH 7.6
[1] = target: recombinant human Cathepsin K (Homo sapiens (Human), UniProt P43235); test: Inhibition of human Cathepsin K; assay type: biochemical; conditions: substrate Z-Gly-Pro-Arg-AMC
Procedure, shortened: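 Fluorogenic Z-Gly-Pro-Arg-AMC cleavage, 60 min at room temperature, after a 10 min enzyme–compound preincubation (enzyme 2 ng/μL; compound 0.1 nM–100 μM; 1% DMSO). Buffer pH 5.5 with sodium acetate, EDTA and L-cysteine; procathepsin first activated 30 min at pH 3.5. E64 (1 μM) stop; IC50 derived from percent of vehicle signal minus background (Ex 360/Em 460 nm).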

[2] = target: recombinant human DPPI (Cathepsin C) (Homo sapiens (Human), UniProt P53634); test: Inhibition of human DPPI (Cathepsin C); assay type: biochemical; conditions: substrate Gly-Arg-AMC
Procedure, shortened: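 Fluorescence read after 30 min room-temperature turnover of 50 μM (final) substrate by recombinant human cathepsin C, pH 6.0 MES/NaCl/DTT/BSA buffer, quenched by Gly-Phe-DMK (1 μM final). Activity as percent of vehicle after background subtraction, used for IC50.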

[3] = Determination of metabolic stability with human liver microsomes; conditions: pooled human liver microsomes; for half-life at 1 μM: human, pH 7.6; for In vitro stability in human liver microsome incubations t½: 1 μM test compound, 37° C., NADPH

Chain of recombinant human DPPI (Cathepsin C) (P53634 231-394): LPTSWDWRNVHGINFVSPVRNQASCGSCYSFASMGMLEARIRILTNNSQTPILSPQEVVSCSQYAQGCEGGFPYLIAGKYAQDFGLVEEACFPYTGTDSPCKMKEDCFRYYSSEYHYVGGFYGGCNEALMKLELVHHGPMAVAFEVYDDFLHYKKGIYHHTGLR
Chain of recombinant human DPPI (Cathepsin C) (P53634 395-463): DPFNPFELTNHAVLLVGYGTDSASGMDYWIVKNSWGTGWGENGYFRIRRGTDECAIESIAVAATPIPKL
Chain of recombinant human DPPI (Cathepsin C) (P53634 25-134): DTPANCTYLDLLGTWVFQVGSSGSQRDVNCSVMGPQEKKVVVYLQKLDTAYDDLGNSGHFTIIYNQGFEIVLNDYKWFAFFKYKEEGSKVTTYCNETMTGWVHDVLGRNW
Chain of recombinant human Cathepsin K (P43235 115-329): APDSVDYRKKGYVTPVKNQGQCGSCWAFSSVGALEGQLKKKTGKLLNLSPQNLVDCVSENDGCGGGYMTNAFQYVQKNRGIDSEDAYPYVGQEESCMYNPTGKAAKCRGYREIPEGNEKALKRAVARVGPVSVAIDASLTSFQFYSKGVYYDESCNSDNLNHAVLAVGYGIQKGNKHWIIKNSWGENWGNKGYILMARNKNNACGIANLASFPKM

| SMILES | half-life at 1 μM (in vitro) | IC50 [1] | IC50 [2] | half-life at 1 μM [3] | In vitro stability in human liver microsome incubations t½ [3] |
| --- | --- | --- | --- | --- | --- |
| CN1CC2CCC(C1)N2c1ccc(C[C@@H](C#N)NC(=O)[C@H]2N[C@@H]3CC[C@H]2C3)c(F)c1 [Example 328] | > 2.17 h | 7700 nM | 4.2 nM |  |  |
| N#C[C@H](Cc1ccc(C2=CCN(C3CCOC3)CC2)cc1F)NC(=O)[C@H]1N[C@@H]2CC[C@H]1C2 (stereo partly drawn) [Example 332] | 1.67 h | 6200 nM | 12.9 nM |  |  |
| CN1CCC(C)(c2ccc(C[C@@H](C#N)NC(=O)[C@H]3N[C@@H]4CC[C@H]3C4)c(F)c2)CC1 [Example 321] | > 2.17 h |  |  |  |  |
| CCN1CC=C(c2ccc(C[C@@H](C#N)NC(=O)[C@H]3N[C@@H]4CC[C@H]3C4)c(F)c2)CC1 [Example 320] | > 2.17 h |  | 9.6 nM |  |  |
| CN(C)CCN1C(=O)Cc2ccc(-c3ccc(C[C@@H](C#N)NC(=O)[C@H]4N[C@@H]5CC[C@H]4C5)c(F)c3)cc21 [Example 278] | > 2.17 h | 1200 nM | 1 nM |  |  |
| N#C[C@H](Cc1ccc(C2=CC3COCCN3CC2)cc1F)NC(=O)[C@H]1N[C@@H]2CC[C@H]1C2 (stereo partly drawn) [Example 282] | > 2.17 h | 1800 nM | 3.7 nM |  |  |
| CN1C2CCC1CN(c1ccc(C[C@@H](C#N)NC(=O)[C@H]3N[C@@H]4CC[C@H]3C4)c(F)c1)C2 [Example 333] | > 2.17 h | 2400 nM | 15.3 nM |  |  |
| CN1CC=C(c2ccc(C[C@@H](C#N)NC(=O)[C@H]3N[C@@H]4CC[C@H]3C4)c(F)c2)CC1 [Example 223] | > 2.17 h |  |  |  |  |
| Cn1cc(-c2ccc(C[C@@H](C#N)NC(=O)[C@H]3N[C@@H]4CC[C@H]3C4)c(F)c2)ccc1=O [Example 254] |  | 4500 nM | 2 nM | > 2.17 h |  |
| N#C[C@H](Cc1ccc(N2CCNCC2)cc1F)NC(=O)[C@H]1N[C@@H]2CC[C@H]1C2 [Example 204] | > 2.17 h |  | 24.5 nM |  |  |
| CN1CCN(C(=O)c2coc(-c3ccc(C[C@@H](C#N)NC(=O)[C@H]4N[C@@H]5CC[C@H]4C5)c(F)c3)c2)CC1 [Example 241] |  | 2500 nM | 6.8 nM | 1.4 h |  |
| CS(=O)(=O)c1cc(-c2cc(F)c(CC(C#N)NC(=O)[C@H]3N[C@@H]4CC[C@H]3C4)c(F)c2)ccc1C#N (stereo partly drawn) [Example 52] |  | 17000 nM | 7.6 nM | > 2.17 h |  |
| CN1C(=O)Cc2ccc(-c3ccc(CC(C#N)NC(=O)[C@H]4N[C@@H]5CC[C@H]4C5)c(F)c3)cc21 (stereo partly drawn) [Example 15] |  | 3200 nM | 2 nM |  | 2.17 h |
| CS(=O)(=O)c1ccc(-c2ccc(C[C@@H](C#N)NC(=O)[C@H]3N[C@@H]4CC[C@H]3C4)c(F)c2)cc1OCC(F)F [Example 252] |  | 3300 nM | 3.8 nM |  | 2.17 h |
| CS(=O)(=O)c1ccc(-c2ccc(C[C@@H](C#N)NC(=O)[C@H]3N[C@@H]4CC[C@H]3C4)c(F)c2)c(F)c1 [Example 86] |  | 6800 nM | 14.1 nM | > 2.17 h |  |
| N#C[C@H](Cc1ccc(-c2cc(-c3ccccc3)no2)cc1F)NC(=O)[C@H]1N[C@@H]2CC[C@H]1C2 [Example 96] |  | 5500 nM | 19.8 nM | 1.37 h |  |
| N#C[C@H](Cc1ccc(-c2cnn(CC3CCOCC3)c2)cc1F)NC(=O)[C@H]1N[C@@H]2CC[C@H]1C2 [Example 57] |  | 2300 nM | 8.3 nM | 1.58 h |  |

| SMILES | half-life at 1 μM (in vitro) | IC50 [1] | IC50 [2] | half-life at 1 μM [3] | In vitro stability in human liver microsome incubations t½ [3] |
| --- | --- | --- | --- | --- | --- |
| N#C[C@H](Cc1cc2c(=O)[nH]c3c(F)c(F)ccc3c2cc1F)NC(=O)[C@H]1N[C@@H]2CC[C@H]1C2 [Example 324] |  | 800 nM | 1 nM | > 2.17 h |  |
| CN(C)C1CCCN(c2ccc(C[C@@H](C#N)NC(=O)[C@H]3N[C@@H]4CC[C@H]3C4)c(F)c2)C1 (stereo partly drawn) [Example 344, (1S,2S,4R)—N-[(1S)-1-cyano-2-[4-[3-(dimethylamino)-1-piperidyl]-2-fluoro-phenyl]ethyl]-3-azabicyclo[2.2.1]heptane-2-carboxamide] |  | 6200 nM | 10 nM | 1.83 h |  |
| N#C[C@H](Cc1ccc(-c2ccc(C(=O)N3CCN4CCOCC4C3)o2)cc1F)NC(=O)[C@H]1N[C@@H]2CC[C@H]1C2 (stereo partly drawn) [Example 238] |  | 9300 nM | 14.3 nM | 1.83 h |  |
| CCC(O)Cc1cn(-c2ccc(C[C@@H](C#N)NC(=O)[C@H]3N[C@@H]4CC[C@H]3C4)c(F)c2)nn1 (stereo partly drawn) [Example 89] |  | 5400 nM | 15.6 nM | > 2.17 h |  |
| N#C[C@H](Cc1ccc(N2CC3CCN(C4CCOC4)C3C2)cc1F)NC(=O)[C@H]1N[C@@H]2CC[C@H]1C2 (stereo partly drawn) [Example 348] |  | 4300 nM | 17.6 nM |  | 2.17 h |
| N#C[C@H](Cc1ccc(-n2cc(COC(=O)N3CCCC3)nn2)cc1F)NC(=O)[C@H]1N[C@@H]2CC[C@H]1C2 [Example 106] |  | 5300 nM | 25.9 nM | > 2.17 h |  |
| CN1CCCN(c2ccc(C[C@@H](C#N)NC(=O)[C@H]3N[C@@H]4CC[C@H]3C4)c(F)c2)CC1 [Example 247] |  | 4500 nM | 8.4 nM | > 2.17 h |  |
| N#C[C@H](Cc1ccc2c(c1)c(=O)[nH]c1cc(C(F)(F)F)ccc12)NC(=O)[C@H]1N[C@@H]2CC[C@H]1C2 [Example 301] |  | 19500 nM | 4.5 nM | 1.67 h |  |
| N#C[C@H](Cc1ccc(N2CCC(N3CCOCC3)CC2)cc1F)NC(=O)[C@H]1N[C@@H]2CC[C@H]1C2 [Example 193] |  | 2200 nM | 12.3 nM | > 2.17 h |  |
| N#C[C@H](Cc1ccc(-c2csc(C(=O)NC3CCOCC3)c2)cc1F)NC(=O)[C@H]1N[C@@H]2CC[C@H]1C2 [Example 235] |  | 3000 nM | 4.7 nM | > 2.17 h |  |
| N#CC(Cc1ccc(-c2ncc(Cl)cn2)cc1F)NC(=O)[C@H]1N[C@@H]2CC[C@H]1C2 (stereo partly drawn) [Example 98] |  | 8400 nM | 20.3 nM | > 2.17 h |  |
| N#C[C@H](Cc1ccc(-c2ccc3c(c2)COC3=O)cc1F)NC(=O)[C@H]1N[C@@H]2CC[C@H]1C2 [Example 3, (1S,2S,4R)—N-[(1S)-1-cyano-2-[2-fluoro-4-(1-oxo-3H-isobenzofuran-5-yl)phenyl]ethyl]-3-azabicyclo[2.2.1]heptane-2-carboxamide] |  | 2100 nM | 0.7 nM | 0.95 h |  |
| CS(=O)(=O)c1cccc(-c2ccc(C[C@@H](C#N)NC(=O)[C@H]3N[C@@H]4CC[C@H]3C4)c(F)c2)c1 [Example 4, (1S,2S,4R)—N-[(1S)-1-cyano-2-[2-fluoro-4-(3-methylsulfonylphenyl)phenyl]ethyl]-3-azabicyclo[2.2.1]heptane-2-carboxamide] |  | 2600 nM | 1.4 nM | > 2.17 h |  |
| CCNC(=O)c1coc(-c2ccc(C[C@@H](C#N)NC(=O)[C@H]3N[C@@H]4CC[C@H]3C4)c(F)c2)c1 [Example 242] |  | 2500 nM | 10.9 nM | > 2.17 h |  |
| N#C[C@H](Cc1ccc(-n2cc(-c3ccc4[nH]ccc4c3)nn2)cc1F)NC(=O)[C@H]1N[C@@H]2CC[C@H]1C2 [Example 5, (1S,2S,4R)—N-[(1S)-1-cyano-2-[2-fluoro-4-[4-(1H-indol-5-yl)triazol-1-yl]phenyl]ethyl]-3-azabicyclo[2.2.1]heptane-2-carboxamide] |  | 2600 nM | 4 nM | 1.53 h |  |
| N#C[C@H](Cc1ccc(-n2cc(CCN3CCOCC3)nn2)cc1F)NC(=O)[C@H]1N[C@@H]2CC[C@H]1C2 [Example 99] |  | 2900 nM | 21.1 nM | > 2.17 h |  |
